# Measured values as given in patent publication US20230391809A1, “HYDROPHOBIC COMPOSITIONS INCLUDING A HYDROPHILIC ACTIVE INGREDIENT AND METHODS RELATING THERETO” (BioMimetix JV, LLC, priority 2022, published 2023).
# Where two headings read alike, the source gives them in different places. Marks after values point to notes of the source that are not given here.
# Protocol: The vial was placed in a first 3 mL low density polyethylene (LDPE) bag with a 1/6 desiccant and the bag was twist tie closed. The first bag was placed in a second 3 mL LDPE bag, twist tie closed, and placed in a high density polyethylene (HDPE) container.
smiles,measurement,setting,value
CC[n+]1ccccc1-c1c2nc(c(-c3cccc[n+]3CC)c3ccc([n-]3)c(-c3cccc[n+]3CC)c3nc(c(-c4cccc[n+]4CC)c4ccc1[n-]4)C=C3)C=C2.[Cl-].[Cl-].[Cl-].[Cl-].[Cl-].[Mn+3] [BMX-010],Appearance,"25° C./60% RH, 3 Month",Brown Solid
same,"Assay by UPLC (Wt % of an anhydrous basis, sum of Atropisomers)","25° C./60% RH, 3 Month",100.3%
same,PSD D10,"25° C./60% RH, 3 Month",D10: 0.60 μm
same,PSD D50,"25° C./60% RH, 3 Month",D50: 1.1 μm
same,PSD D90,"25° C./60% RH, 3 Month",D90: 2.0 μm
same,Total Impurities by HPLC (Area %),"25° C./60% RH, 3 Month",0.81%
same,Water Content by Karl Fischer,"25° C./60% RH, 3 Month",7.3%
same,Appearance,"25° C./60% RH, 6 Month",Brown Solid
same,"Assay by UPLC (Wt % of an anhydrous basis, sum of Atropisomers)","25° C./60% RH, 6 Month",99.9%
same,PSD D10,"25° C./60% RH, 6 Month",D10: 0.62 μm*
same,PSD D50,"25° C./60% RH, 6 Month",D50: 1.2 μm*
same,PSD D90,"25° C./60% RH, 6 Month",D90: 2.0 μm*
same,Total Impurities by HPLC (Area %),"25° C./60% RH, 6 Month",0.88%
same,Water Content by Karl Fischer,"25° C./60% RH, 6 Month",7.7%
same,XRPD,"25° C./60% RH, 6 Month",Amorphous
same,Appearance,"40° C./75% RH, 3 Month",Brown Solid
same,"Assay by UPLC (Wt % of an anhydrous basis, sum of Atropisomers)","40° C./75% RH, 3 Month",100.2%
same,PSD D10,"40° C./75% RH, 3 Month",D10: 0.60 μm
same,PSD D50,"40° C./75% RH, 3 Month",D50: 1.2 μm
same,PSD D90,"40° C./75% RH, 3 Month",D90: 2.1 μm
same,Total Impurities by HPLC (Area %),"40° C./75% RH, 3 Month",1.3%
same,Water Content by Karl Fischer,"40° C./75% RH, 3 Month",7.5%
same,Appearance,"40° C./75% RH, 6 Month",Brown Solid
same,"Assay by UPLC (Wt % of an anhydrous basis, sum of Atropisomers)","40° C./75% RH, 6 Month",97.9%**
same,PSD D10,"40° C./75% RH, 6 Month",D10: 0.61 μm*
same,PSD D50,"40° C./75% RH, 6 Month",D50: 1.2 μm*
same,PSD D90,"40° C./75% RH, 6 Month",D90: 2.1 μm*
same,Total Impurities by HPLC (Area %),"40° C./75% RH, 6 Month",1.6%**
same,Water Content by Karl Fischer,"40° C./75% RH, 6 Month",8.5%
same,XRPD,"40° C./75% RH, 6 Month",Amorphous
same,Appearance,T = 0,Brown Solid
same,"Assay by UPLC (Wt % of an anhydrous basis, sum of Atropisomers)",T = 0,97.5%
same,PSD D10,T = 0,D10: 0.61 μm
same,PSD D50,T = 0,D50: 1.2 μm
same,PSD D90,T = 0,D90: 2.0 μm
same,Total Impurities by HPLC (Area %),T = 0,0.67%
same,Water Content by Karl Fischer,T = 0,6.9%
same,XRPD,T = 0,Amorphous
same,Appearance,"−20° C., 3 Month",Brown Solid
same,"Assay by UPLC (Wt % of an anhydrous basis, sum of Atropisomers)","−20° C., 3 Month",101.4%
same,PSD D10,"−20° C., 3 Month",D10: 0.59 μm
same,PSD D50,"−20° C., 3 Month",D50: 1.1 μm
same,PSD D90,"−20° C., 3 Month",D90: 2.0 μm
same,Total Impurities by HPLC (Area %),"−20° C., 3 Month",0.63%
same,Water Content by Karl Fischer,"−20° C., 3 Month",7.0%
same,Appearance,"−20° C., 6 Month",Brown Solid
same,"Assay by UPLC (Wt % of an anhydrous basis, sum of Atropisomers)","−20° C., 6 Month",100.7%
same,PSD D10,"−20° C., 6 Month",D10: 0.59 μm*
same,PSD D50,"−20° C., 6 Month",D50: 1.1 μm*
same,PSD D90,"−20° C., 6 Month",D90: 1.9 μm*
same,Total Impurities by HPLC (Area %),"−20° C., 6 Month",0.63%
same,Water Content by Karl Fischer,"−20° C., 6 Month",7.4%
same,XRPD,"−20° C., 6 Month",Amorphous
